Results: patent publication US12497365B2, “4-pyridinyl formamide compound or derivative thereof, preparation method therefor, herbicidal composition and use thereof” (Qingdao Kingagroot Chemical Compound Co., Ltd., priority 2019, dated 2025)

Key:
Experiment in all cases: Weeding effect in post-emergence stage
Assay type in all cases: in vivo
Conditions in all cases: active ingredient 2000 g/ha, 3 weeks after application, fresh weight control rate
Abutilon theophrasti = tested on: Abutilon theophrasti
How it was run: (§1)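 Weeds sown in soil-filled pots under 0.5-2 cm cover were grown in a greenhouse and sprayed at the 2-3 leaf stage, 2 weeks after sowing. Compounds in acetone with Tween 80 and 1.5 liter/ha methyl oleate concentrate were applied at 2000, 1000, 500, 250 or 125 g/ha. Fresh weight control rate was scored after 3 weeks.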

Descurainia sophia = tested on: Descurainia sophia
How it was run: as §1

[1] = tested on: Amaranthus retroflexus L.
How it was run: as §1

Chenopodium album = tested on: Chenopodium album
How it was run: as §1

Structure (SMILES)	Weeding effect, activity level (growth control rate), Abutilon theophrasti (Abutilon theophrasti)	Weeding effect, activity level (growth control rate), Descurainia sophia (Descurainia sophia)	Weeding effect, activity level (growth control rate), Amaranthus retroflexus L. [1]	Weeding effect, activity level (growth control rate), Chenopodium album (Chenopodium album)
Cn1nnnc1NC(=O)c1ccnc(-c2ccc(F)cc2)c1C(F)(F)F [Compound 1-198]	5 (Level 5: growth control rate is above 85%)	5 (Level 5: growth control rate is above 85%)	5 (Level 5: growth control rate is above 85%)	5 (Level 5: growth control rate is above 85%)
Cn1nnnc1NC(=O)c1ccnc(-c2ccc(F)cc2)c1-c1ccccc1 [Compound 1-199]	5 (Level 5: growth control rate is above 85%)	5 (Level 5: growth control rate is above 85%)	5 (Level 5: growth control rate is above 85%)	5 (Level 5: growth control rate is above 85%)
COc1c(C(=O)Nc2nnnn2C)ccnc1-c1ccc(F)cc1 [Compound 1-200]	5 (Level 5: growth control rate is above 85%)	5 (Level 5: growth control rate is above 85%)	5 (Level 5: growth control rate is above 85%)	5 (Level 5: growth control rate is above 85%)
CCOc1c(C(=O)Nc2nnnn2C)ccnc1-c1ccc(F)cc1 [Compound 1-201]	5 (Level 5: growth control rate is above 85%)	5 (Level 5: growth control rate is above 85%)	5 (Level 5: growth control rate is above 85%)	5 (Level 5: growth control rate is above 85%)
Cn1nnnc1NC(=O)c1ccnc(-c2ccc(F)cc2)c1OCC(F)(F)F [Compound 1-202]	5 (Level 5: growth control rate is above 85%)	5 (Level 5: growth control rate is above 85%)	5 (Level 5: growth control rate is above 85%)	5 (Level 5: growth control rate is above 85%)
CSc1c(C(=O)Nc2nnnn2C)ccnc1-c1ccc(F)cc1 [Compound 1-203]	5 (Level 5: growth control rate is above 85%)	5 (Level 5: growth control rate is above 85%)	5 (Level 5: growth control rate is above 85%)	5 (Level 5: growth control rate is above 85%)
CCSc1c(C(=O)Nc2nnnn2C)ccnc1-c1ccc(F)cc1 [Compound 1-204]	5 (Level 5: growth control rate is above 85%)	5 (Level 5: growth control rate is above 85%)	5 (Level 5: growth control rate is above 85%)	5 (Level 5: growth control rate is above 85%)
Cn1nnnc1NC(=O)c1ccnc(-c2ccc(F)cc2)c1[S+](C)[O-] (stereo not shown) [Compound 1-205]	5 (Level 5: growth control rate is above 85%)	5 (Level 5: growth control rate is above 85%)	5 (Level 5: growth control rate is above 85%)	5 (Level 5: growth control rate is above 85%)
CC[S+]([O-])c1c(C(=O)Nc2nnnn2C)ccnc1-c1ccc(F)cc1 (stereo not shown) [Compound 1-206]	5 (Level 5: growth control rate is above 85%)	5 (Level 5: growth control rate is above 85%)	5 (Level 5: growth control rate is above 85%)	5 (Level 5: growth control rate is above 85%)
Cn1nnnc1NC(=O)c1ccnc(-c2ccc(F)cc2)c1S(C)(=O)=O [Compound 1-207]	5 (Level 5: growth control rate is above 85%)	5 (Level 5: growth control rate is above 85%)	5 (Level 5: growth control rate is above 85%)	5 (Level 5: growth control rate is above 85%)
CN(C)c1c(C(=O)Nc2nnnn2C)ccnc1-c1ccc(F)cc1 [Compound 1-208]	5 (Level 5: growth control rate is above 85%)	5 (Level 5: growth control rate is above 85%)	5 (Level 5: growth control rate is above 85%)	5 (Level 5: growth control rate is above 85%)
CC(C)=NOc1c(C(=O)Nc2nnnn2C)ccnc1-c1ccc(F)cc1 [Compound 1-209]	5 (Level 5: growth control rate is above 85%)	5 (Level 5: growth control rate is above 85%)	5 (Level 5: growth control rate is above 85%)	5 (Level 5: growth control rate is above 85%)
CCc1c(C(=O)Nc2nnnn2C)ccnc1-c1ccc(F)cc1 [Compound 1-210]	5 (Level 5: growth control rate is above 85%)	5 (Level 5: growth control rate is above 85%)	5 (Level 5: growth control rate is above 85%)	5 (Level 5: growth control rate is above 85%)
Cn1nnnc1NC(=O)c1ccnc(-c2ccc(F)cc2)c1SCCl [Compound 1-211]	5 (Level 5: growth control rate is above 85%)	5 (Level 5: growth control rate is above 85%)	5 (Level 5: growth control rate is above 85%)	5 (Level 5: growth control rate is above 85%)
Cn1nnnc1NC(=O)c1ccnc(-c2ccc(F)cc2)c1[N+](=O)[O-] [Compound 1-212]	5 (Level 5: growth control rate is above 85%)	5 (Level 5: growth control rate is above 85%)	5 (Level 5: growth control rate is above 85%)	5 (Level 5: growth control rate is above 85%)
Cn1nnnc1NC(=O)c1ccnc(-c2ccc(F)cc2)c1C#N [Compound 1-213]	5 (Level 5: growth control rate is above 85%)	5 (Level 5: growth control rate is above 85%)	5 (Level 5: growth control rate is above 85%)	5 (Level 5: growth control rate is above 85%)
COCc1c(C(=O)Nc2nnnn2C)ccnc1-c1ccc(F)cc1 [Compound 1-214]	5 (Level 5: growth control rate is above 85%)	5 (Level 5: growth control rate is above 85%)	5 (Level 5: growth control rate is above 85%)	5 (Level 5: growth control rate is above 85%)
COC(C)c1c(C(=O)Nc2nnnn2C)ccnc1-c1ccc(F)cc1 (stereo not shown) [Compound 1-215]	5 (Level 5: growth control rate is above 85%)	5 (Level 5: growth control rate is above 85%)	5 (Level 5: growth control rate is above 85%)	5 (Level 5: growth control rate is above 85%)
CCC(OC)c1c(C(=O)Nc2nnnn2C)ccnc1-c1ccc(F)cc1 (stereo not shown) [Compound 1-216]	5 (Level 5: growth control rate is above 85%)	5 (Level 5: growth control rate is above 85%)	5 (Level 5: growth control rate is above 85%)	5 (Level 5: growth control rate is above 85%)
